Read-outs that look alike come from different tables or passages of the source.
How the values were obtained:
Assay type in all cases: biochemical
Fgr(h) = molecular target: T1, Fgr(h) (Homo sapiens, UniProt P09769); test: Kinase panel
T1 construct: purchased Millipore KinaseProfiler

RIPK2(h) = molecular target: T2, RIPK2(h) (Homo sapiens, UniProt O43353); test: Kinase panel
T2 construct: purchased Millipore KinaseProfiler

EphA2(h) = molecular target: T3, EphA2(h) (Homo sapiens, UniProt P29317); test: Kinase panel
T3 construct: purchased Millipore KinaseProfiler

NEK7(h) = molecular target: T4, NEK7(h) (Homo sapiens, UniProt Q8TDX7); test: Kinase panel
T4 construct: purchased Millipore KinaseProfiler

Aurora-A(h) = molecular target: T5, Aurora-A(h) (Homo sapiens, UniProt O14965); test: Kinase panel
T5 construct: purchased Millipore KinaseProfiler
T5 sequence (O14965 1-403): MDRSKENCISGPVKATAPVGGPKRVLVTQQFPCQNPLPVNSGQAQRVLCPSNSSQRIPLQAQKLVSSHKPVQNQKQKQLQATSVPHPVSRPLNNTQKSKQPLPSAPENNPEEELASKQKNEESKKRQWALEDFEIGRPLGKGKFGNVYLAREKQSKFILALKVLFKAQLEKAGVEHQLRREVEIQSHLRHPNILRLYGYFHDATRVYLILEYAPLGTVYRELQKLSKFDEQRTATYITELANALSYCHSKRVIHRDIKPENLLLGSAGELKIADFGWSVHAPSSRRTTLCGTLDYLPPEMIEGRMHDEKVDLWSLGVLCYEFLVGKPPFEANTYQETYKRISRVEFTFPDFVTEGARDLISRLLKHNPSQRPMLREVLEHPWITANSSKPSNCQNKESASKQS

Itk(h) = molecular target: T6, Itk(h) (Homo sapiens, UniProt Q08881); test: Kinase panel
T6 construct: purchased Millipore KinaseProfiler
T6 sequence (Q08881 1-620): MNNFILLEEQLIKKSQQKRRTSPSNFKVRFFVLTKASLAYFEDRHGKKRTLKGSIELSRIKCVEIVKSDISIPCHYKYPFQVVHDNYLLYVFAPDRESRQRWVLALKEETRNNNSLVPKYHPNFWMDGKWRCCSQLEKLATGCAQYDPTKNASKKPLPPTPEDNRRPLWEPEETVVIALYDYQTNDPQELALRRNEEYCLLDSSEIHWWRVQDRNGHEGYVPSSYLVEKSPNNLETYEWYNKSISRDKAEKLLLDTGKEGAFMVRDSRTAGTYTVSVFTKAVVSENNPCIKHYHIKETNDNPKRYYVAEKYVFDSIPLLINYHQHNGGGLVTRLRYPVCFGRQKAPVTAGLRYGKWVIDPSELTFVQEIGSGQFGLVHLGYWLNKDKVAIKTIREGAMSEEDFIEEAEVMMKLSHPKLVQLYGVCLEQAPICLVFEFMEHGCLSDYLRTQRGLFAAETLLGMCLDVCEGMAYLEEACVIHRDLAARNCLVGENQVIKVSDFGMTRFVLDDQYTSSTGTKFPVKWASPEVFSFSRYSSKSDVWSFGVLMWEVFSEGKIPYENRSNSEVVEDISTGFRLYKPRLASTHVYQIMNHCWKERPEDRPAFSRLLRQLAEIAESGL

SRPK1(h) = molecular target: T7, SRPK1(h) (Homo sapiens, UniProt Q96SB4); test: Kinase panel
T7 construct: purchased Millipore KinaseProfiler

CDK9/cyclin T1(h) = molecular target: T8, CDK9/cyclin T1(h) (Homo sapiens, UniProt P50750); test: Kinase panel
T8 construct: purchased Millipore KinaseProfiler

EGFR(h) = molecular target: T9, EGFR(h) (Homo sapiens, UniProt P00533); test: Kinase panel
T9 construct: purchased Millipore KinaseProfiler

IRR(h) = molecular target: T10, IRR(h) (Homo sapiens, UniProt P14616); test: Kinase panel
T10 construct: purchased Millipore KinaseProfiler

DAPK1(h) = molecular target: T11, DAPK1(h) (Homo sapiens, UniProt P53355); test: Kinase panel
T11 construct: purchased Millipore KinaseProfiler

EphA8(h) = molecular target: T12, EphA8(h) (Homo sapiens, UniProt P29322); test: Kinase panel
T12 construct: purchased Millipore KinaseProfiler
T12 sequence (P29322 28-1005): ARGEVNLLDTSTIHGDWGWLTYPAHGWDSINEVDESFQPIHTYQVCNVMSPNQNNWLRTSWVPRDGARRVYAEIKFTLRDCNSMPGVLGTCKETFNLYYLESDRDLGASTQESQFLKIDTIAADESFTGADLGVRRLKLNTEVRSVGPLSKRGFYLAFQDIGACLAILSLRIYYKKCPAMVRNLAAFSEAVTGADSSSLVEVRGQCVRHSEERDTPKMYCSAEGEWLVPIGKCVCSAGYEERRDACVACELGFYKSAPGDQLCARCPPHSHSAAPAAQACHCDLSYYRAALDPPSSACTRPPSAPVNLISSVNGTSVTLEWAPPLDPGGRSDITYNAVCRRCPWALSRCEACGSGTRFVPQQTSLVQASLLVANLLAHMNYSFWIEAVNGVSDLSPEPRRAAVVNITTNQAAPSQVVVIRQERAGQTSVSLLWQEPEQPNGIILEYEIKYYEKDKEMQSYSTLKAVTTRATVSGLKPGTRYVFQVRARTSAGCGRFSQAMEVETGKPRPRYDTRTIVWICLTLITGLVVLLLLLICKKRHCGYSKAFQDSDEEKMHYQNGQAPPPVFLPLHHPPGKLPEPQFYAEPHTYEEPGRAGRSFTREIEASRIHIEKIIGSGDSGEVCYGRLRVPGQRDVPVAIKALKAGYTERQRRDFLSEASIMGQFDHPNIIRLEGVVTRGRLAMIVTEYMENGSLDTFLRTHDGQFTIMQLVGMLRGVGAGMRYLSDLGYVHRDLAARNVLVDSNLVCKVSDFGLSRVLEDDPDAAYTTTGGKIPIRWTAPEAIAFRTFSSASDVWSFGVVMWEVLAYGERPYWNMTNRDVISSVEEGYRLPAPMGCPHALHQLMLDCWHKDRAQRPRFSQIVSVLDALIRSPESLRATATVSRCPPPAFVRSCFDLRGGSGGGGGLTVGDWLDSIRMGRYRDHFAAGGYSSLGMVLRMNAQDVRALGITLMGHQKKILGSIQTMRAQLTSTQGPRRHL

ROCK = test: Kinase IC50 assay
Snk(h) = molecular target: T13, Snk(h) (Homo sapiens, UniProt Q9NYY3); test: Kinase panel
T13 construct: purchased Millipore KinaseProfiler
T13 sequence (Q9NYY3 whole entry): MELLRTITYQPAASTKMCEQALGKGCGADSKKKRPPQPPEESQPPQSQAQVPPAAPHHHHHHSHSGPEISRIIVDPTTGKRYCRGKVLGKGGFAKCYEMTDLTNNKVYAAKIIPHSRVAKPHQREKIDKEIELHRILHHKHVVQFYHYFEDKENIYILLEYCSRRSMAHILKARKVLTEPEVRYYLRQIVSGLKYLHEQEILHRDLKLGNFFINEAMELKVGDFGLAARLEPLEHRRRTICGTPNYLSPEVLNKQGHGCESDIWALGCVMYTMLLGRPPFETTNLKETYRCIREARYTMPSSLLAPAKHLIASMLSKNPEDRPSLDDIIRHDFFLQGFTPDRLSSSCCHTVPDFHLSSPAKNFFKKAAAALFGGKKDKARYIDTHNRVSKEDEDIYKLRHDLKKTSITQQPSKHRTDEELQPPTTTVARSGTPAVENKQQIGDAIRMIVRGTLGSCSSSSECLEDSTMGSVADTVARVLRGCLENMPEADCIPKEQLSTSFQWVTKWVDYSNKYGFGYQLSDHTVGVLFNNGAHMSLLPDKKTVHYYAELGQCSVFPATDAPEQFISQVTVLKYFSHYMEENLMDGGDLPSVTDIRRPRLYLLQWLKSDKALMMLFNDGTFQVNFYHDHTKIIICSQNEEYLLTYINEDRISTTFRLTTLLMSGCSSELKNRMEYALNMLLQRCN

T7 sequence (Q96SB4 whole entry): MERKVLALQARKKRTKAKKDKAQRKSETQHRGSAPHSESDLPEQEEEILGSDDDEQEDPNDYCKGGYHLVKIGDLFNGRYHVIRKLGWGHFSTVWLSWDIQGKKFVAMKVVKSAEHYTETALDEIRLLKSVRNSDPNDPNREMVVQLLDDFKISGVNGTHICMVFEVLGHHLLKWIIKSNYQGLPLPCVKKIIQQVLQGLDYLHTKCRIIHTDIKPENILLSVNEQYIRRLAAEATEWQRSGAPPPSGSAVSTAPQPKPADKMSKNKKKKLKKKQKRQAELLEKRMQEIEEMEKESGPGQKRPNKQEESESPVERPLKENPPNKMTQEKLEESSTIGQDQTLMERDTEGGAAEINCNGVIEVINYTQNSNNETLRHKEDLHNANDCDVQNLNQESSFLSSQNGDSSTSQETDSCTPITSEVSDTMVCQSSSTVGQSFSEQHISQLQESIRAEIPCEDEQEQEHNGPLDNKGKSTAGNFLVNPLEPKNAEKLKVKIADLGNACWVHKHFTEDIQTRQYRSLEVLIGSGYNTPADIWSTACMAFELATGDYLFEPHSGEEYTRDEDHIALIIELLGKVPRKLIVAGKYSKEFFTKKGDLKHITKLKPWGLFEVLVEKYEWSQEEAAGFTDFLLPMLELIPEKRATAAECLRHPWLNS
T10 sequence (P14616 27-1297): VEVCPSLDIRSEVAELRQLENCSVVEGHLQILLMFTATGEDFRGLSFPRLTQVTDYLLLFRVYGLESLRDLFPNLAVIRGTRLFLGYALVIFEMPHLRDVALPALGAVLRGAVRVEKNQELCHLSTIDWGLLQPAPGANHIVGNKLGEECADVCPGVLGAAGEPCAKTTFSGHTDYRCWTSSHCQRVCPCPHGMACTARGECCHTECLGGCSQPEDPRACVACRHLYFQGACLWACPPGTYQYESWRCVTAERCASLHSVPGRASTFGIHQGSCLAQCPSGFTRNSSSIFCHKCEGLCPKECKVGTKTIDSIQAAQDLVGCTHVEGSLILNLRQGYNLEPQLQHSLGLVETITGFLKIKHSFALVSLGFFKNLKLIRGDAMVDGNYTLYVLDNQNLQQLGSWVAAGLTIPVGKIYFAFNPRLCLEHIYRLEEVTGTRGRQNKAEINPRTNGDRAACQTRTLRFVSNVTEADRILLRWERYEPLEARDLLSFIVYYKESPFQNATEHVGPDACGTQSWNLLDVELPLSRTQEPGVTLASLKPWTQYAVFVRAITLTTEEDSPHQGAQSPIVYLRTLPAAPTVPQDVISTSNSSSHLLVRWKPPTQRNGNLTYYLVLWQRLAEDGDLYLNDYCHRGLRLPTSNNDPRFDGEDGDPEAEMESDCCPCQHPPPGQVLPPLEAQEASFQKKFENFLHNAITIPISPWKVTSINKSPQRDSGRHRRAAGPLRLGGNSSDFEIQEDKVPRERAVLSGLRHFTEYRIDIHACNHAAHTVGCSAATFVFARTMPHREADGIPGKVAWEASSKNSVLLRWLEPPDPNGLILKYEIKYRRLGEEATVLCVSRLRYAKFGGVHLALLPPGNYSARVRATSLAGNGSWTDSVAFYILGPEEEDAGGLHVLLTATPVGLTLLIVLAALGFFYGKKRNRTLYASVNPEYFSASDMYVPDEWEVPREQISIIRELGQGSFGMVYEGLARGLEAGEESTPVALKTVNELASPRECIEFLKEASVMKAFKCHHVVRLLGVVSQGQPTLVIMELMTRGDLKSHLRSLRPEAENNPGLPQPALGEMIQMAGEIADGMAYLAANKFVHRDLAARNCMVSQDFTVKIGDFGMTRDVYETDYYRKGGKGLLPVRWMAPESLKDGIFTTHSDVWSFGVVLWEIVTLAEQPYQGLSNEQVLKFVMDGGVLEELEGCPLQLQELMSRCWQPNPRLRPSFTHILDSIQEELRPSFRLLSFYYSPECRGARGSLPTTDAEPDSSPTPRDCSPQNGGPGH
T8 sequence (P50750 whole entry): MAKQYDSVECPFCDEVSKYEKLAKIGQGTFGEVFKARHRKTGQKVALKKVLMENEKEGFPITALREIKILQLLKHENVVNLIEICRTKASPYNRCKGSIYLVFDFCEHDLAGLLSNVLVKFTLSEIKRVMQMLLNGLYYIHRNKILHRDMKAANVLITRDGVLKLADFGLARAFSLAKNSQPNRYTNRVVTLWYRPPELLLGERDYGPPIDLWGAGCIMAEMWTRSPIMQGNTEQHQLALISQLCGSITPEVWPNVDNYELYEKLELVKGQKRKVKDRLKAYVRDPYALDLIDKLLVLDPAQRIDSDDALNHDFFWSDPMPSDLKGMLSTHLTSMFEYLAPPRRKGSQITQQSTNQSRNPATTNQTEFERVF
T8 sequence (O60563 whole entry partner): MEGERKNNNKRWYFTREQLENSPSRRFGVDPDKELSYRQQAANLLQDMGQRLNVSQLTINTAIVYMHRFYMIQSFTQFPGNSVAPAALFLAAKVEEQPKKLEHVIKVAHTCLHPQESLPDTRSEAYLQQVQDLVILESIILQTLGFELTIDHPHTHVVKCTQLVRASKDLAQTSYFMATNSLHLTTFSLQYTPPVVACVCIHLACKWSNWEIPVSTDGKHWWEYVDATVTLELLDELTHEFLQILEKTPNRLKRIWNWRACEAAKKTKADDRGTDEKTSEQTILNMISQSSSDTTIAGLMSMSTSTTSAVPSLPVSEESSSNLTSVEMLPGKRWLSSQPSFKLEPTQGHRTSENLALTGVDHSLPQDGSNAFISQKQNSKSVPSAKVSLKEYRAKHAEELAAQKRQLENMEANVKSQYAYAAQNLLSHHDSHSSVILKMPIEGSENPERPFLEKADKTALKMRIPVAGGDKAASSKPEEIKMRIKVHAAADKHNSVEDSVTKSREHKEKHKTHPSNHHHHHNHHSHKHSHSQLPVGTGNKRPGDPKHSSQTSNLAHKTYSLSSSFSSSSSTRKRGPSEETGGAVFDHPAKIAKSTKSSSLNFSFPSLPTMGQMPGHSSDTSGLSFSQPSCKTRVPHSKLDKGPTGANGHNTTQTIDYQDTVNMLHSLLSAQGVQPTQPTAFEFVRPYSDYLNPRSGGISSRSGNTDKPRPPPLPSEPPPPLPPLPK
T3 sequence (P29317 24-976): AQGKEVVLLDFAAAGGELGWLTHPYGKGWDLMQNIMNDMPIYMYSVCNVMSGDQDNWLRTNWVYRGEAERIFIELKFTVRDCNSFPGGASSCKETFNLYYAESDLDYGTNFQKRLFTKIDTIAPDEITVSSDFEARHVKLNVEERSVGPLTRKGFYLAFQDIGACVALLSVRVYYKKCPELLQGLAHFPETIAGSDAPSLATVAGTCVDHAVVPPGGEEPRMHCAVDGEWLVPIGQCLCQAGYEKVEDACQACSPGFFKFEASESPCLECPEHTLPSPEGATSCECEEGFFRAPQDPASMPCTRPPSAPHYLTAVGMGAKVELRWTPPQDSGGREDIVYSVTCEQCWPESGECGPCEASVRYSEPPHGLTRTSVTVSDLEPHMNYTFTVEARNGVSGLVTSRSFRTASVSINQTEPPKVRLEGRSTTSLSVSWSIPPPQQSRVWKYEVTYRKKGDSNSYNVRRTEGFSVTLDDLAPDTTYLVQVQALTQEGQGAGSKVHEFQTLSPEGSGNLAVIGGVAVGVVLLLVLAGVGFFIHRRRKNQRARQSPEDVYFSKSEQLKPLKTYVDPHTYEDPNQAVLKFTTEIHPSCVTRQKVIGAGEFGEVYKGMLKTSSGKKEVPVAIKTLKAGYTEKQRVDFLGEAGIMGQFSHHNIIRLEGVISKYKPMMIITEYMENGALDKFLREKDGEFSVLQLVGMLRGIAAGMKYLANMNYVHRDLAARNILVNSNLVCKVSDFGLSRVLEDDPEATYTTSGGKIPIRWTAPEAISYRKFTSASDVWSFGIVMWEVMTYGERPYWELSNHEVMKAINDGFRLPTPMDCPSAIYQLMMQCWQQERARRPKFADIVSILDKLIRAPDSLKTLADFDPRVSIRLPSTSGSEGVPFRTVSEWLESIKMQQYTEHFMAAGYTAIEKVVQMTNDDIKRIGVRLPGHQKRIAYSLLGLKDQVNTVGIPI
T4 sequence (Q8TDX7 whole entry): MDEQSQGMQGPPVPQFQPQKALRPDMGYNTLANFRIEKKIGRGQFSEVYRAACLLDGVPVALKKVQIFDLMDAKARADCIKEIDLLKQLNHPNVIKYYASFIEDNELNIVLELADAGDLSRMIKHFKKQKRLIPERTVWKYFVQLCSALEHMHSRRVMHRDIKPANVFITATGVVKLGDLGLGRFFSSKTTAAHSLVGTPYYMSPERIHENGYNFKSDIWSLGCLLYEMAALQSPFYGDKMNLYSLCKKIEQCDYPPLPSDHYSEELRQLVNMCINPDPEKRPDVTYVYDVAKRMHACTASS

Cn1ncc(Cl)c1-c1cc(C(=O)N[C@H](CN)Cc2ccc(F)c(F)c2)oc1Cl [GSK2141795]
inhibition at 0.5 µM (Fgr(h); 0.5 µM, read-out: % Inhibition): 2% | inhibition at 10 µM (Fgr(h); 10 µM, read-out: % Inhibition): 68% | inhibition at 0.5 µM (RIPK2(h); 0.5 µM, read-out: % Inhibition): 3% | inhibition at 10 µM (RIPK2(h); 10 µM, read-out: % Inhibition): 15% | inhibition at 0.5 µM (EphA2(h); 0.5 µM, read-out: % Inhibition): 25% | inhibition at 10 µM (EphA2(h); 10 µM, read-out: % Inhibition): 39% | inhibition at 0.5 µM (NEK7(h); 0.5 µM, read-out: % Inhibition): -9% | inhibition at 10 µM (NEK7(h); 10 µM, read-out: % Inhibition): -32% | inhibition at 0.5 µM (Aurora-A(h); 0.5 µM, read-out: % Inhibition): -10% | inhibition at 10 µM (Aurora-A(h); 10 µM, read-out: % Inhibition): 31% | inhibition at 0.5 µM (Itk(h); 0.5 µM, read-out: % Inhibition): -15% | inhibition at 10 µM (Itk(h); 10 µM, read-out: % Inhibition): -7% | inhibition at 0.5 µM (SRPK1(h); 0.5 µM, read-out: % Inhibition): 5% | inhibition at 10 µM (SRPK1(h); 10 µM, read-out: % Inhibition): 17% | inhibition at 0.5 µM (CDK9/cyclin T1(h); 0.5 µM, read-out: % Inhibition): 15% | inhibition at 10 µM (CDK9/cyclin T1(h); 10 µM, read-out: % Inhibition): 72% | inhibition at 0.5 µM (EGFR(h); 0.5 µM, read-out: % Inhibition): -42% | inhibition at 10 µM (EGFR(h); 10 µM, read-out: % Inhibition): -40% | inhibition at 0.5 µM (IRR(h); 0.5 µM, read-out: % Inhibition): -16% | inhibition at 10 µM (IRR(h); 10 µM, read-out: % Inhibition): -11% | inhibition at 0.5 µM (DAPK1(h); 0.5 µM, read-out: % Inhibition): 1% | inhibition at 10 µM (DAPK1(h); 10 µM, read-out: % Inhibition): 41% | inhibition at 0.5 µM (EphA8(h); 0.5 µM, read-out: % Inhibition): -4% | inhibition at 10 µM (EphA8(h); 10 µM, read-out: % Inhibition): 25% | IC50 (ROCK): 126 nM | inhibition at 0.5 µM (Snk(h); 0.5 µM, read-out: % Inhibition): -12% | inhibition at 10 µM (Snk(h); 10 µM, read-out: % Inhibition): 15%

Cn1ncc(Cl)c1-c1cc(C(=O)N[C@H](CN)Cc2cccc(F)c2)sc1Cl [GSK2110183]
inhibition at 0.5 µM (Fgr(h)): 3% | inhibition at 10 µM (Fgr(h)): 45% | inhibition at 0.5 µM (RIPK2(h)): -8% | inhibition at 10 µM (RIPK2(h)): -3% | inhibition at 0.5 µM (EphA2(h)): -17% | inhibition at 10 µM (EphA2(h)): -4% | inhibition at 0.5 µM (NEK7(h)): -8% | inhibition at 10 µM (NEK7(h)): -12% | inhibition at 0.5 µM (Aurora-A(h)): 0% | inhibition at 10 µM (Aurora-A(h)): 23% | inhibition at 0.5 µM (Itk(h)): 0% | inhibition at 10 µM (Itk(h)): 2% | inhibition at 0.5 µM (SRPK1(h)): -1% | inhibition at 10 µM (SRPK1(h)): 18% | inhibition at 0.5 µM (CDK9/cyclin T1(h)): 0% | inhibition at 10 µM (CDK9/cyclin T1(h)): 48% | inhibition at 0.5 µM (EGFR(h)): -4% | inhibition at 10 µM (EGFR(h)): 2% | inhibition at 0.5 µM (IRR(h)): -11% | inhibition at 10 µM (IRR(h)): -8% | inhibition at 0.5 µM (DAPK1(h)): 1% | inhibition at 10 µM (DAPK1(h)): 28% | inhibition at 0.5 µM (EphA8(h)): -19% | inhibition at 10 µM (EphA8(h)): -7% | IC50 (ROCK): 100 nM | inhibition at 0.5 µM (Snk(h)): -8% | inhibition at 10 µM (Snk(h)): 18%

Reference: PMC4076210, “Discovery of Novel AKT Inhibitors with Enhanced Anti-Tumor Effects in Combination with the MEK Inhibitor” (PLoS ONE, 2014)
